In ChEMBL document CHEMBL4004847, “New tacrine-derived AChE/BuChE inhibitors: Synthesis and biological evaluation of 5-amino-2-phenyl-4H-pyrano[2,3-b]quinoline-3-carboxylates” (Eur J Med Chem, 2017):
In brackets after ≈: the same amount, converted by molar mass. Activity calls are given as the source filed them. The calls are words filed in the database; no cut-off is given here.

How the values were obtained:
Acetylcholinesterase [1] = biological target: T1, Acetylcholinesterase (Electrophorus electricus, UniProt O42275)
Description: Inhibition of electric eel AChE using acetylthiocholine iodide as substrate preincubated for 5 mins followed by substrate addition measured for 1 min by Ellman's method

Cholinesterase = Cholinesterase (Homo sapiens, UniProt P06276)
Description: Inhibition of human BuChE using butyrylthiocholine iodide as substrate preincubated for 5 mins followed by substrate addition measured for 1 min by Ellman's method

HepG2 = experiment: cells; details: Homo sapiens, HepG2, 24 h
Description: Cytotoxicity against human HepG2 cells assessed as reduction in cell viability after 24 hrs by MTT assay

PC-12 [2] = experiment: Neuroprotective activity against H2O2-induced cell death in rat PC12 cells assessed as increase in cell viability at 10 uM preincubated for 3 hrs followed by H2O2 addition measured after 24 hrs by MTT assay; assay type: functional, cell-based
PC-12 [3] = experiment: Neuroprotective activity against H2O2-induced cell death in rat PC12 cells assessed as increase in cell viability at 100 uM preincubated for 3 hrs followed by H2O2 addition measured after 24 hrs by MTT assay; assay type: functional, cell-based
Acetylcholinesterase [4] = biological target: T1, Acetylcholinesterase; experiment: Mixed-type inhibition of electric eel AChE preincubated for 5 mins followed by varying levels acetylthiocholine iodide substrate addition by Lineweaver-Burk plot analysis

T1 sequence (O42275 whole entry): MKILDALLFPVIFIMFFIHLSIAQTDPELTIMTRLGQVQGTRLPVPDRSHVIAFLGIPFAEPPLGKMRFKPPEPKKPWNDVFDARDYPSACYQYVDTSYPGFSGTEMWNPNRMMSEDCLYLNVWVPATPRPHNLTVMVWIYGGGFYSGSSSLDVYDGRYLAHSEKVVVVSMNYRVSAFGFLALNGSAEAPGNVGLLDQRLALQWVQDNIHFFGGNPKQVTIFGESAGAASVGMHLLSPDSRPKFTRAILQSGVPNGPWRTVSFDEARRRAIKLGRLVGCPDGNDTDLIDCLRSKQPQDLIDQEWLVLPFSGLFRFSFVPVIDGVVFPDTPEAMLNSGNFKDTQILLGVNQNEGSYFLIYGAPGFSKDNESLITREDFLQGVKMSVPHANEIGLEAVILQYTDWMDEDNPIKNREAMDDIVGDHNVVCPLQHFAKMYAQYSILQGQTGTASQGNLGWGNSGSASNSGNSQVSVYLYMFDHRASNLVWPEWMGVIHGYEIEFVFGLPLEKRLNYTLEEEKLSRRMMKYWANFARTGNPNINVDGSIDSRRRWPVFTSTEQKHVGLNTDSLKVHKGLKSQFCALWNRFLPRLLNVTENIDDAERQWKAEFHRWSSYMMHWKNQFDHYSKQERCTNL
Sequence of Cholinesterase (P06276 whole entry): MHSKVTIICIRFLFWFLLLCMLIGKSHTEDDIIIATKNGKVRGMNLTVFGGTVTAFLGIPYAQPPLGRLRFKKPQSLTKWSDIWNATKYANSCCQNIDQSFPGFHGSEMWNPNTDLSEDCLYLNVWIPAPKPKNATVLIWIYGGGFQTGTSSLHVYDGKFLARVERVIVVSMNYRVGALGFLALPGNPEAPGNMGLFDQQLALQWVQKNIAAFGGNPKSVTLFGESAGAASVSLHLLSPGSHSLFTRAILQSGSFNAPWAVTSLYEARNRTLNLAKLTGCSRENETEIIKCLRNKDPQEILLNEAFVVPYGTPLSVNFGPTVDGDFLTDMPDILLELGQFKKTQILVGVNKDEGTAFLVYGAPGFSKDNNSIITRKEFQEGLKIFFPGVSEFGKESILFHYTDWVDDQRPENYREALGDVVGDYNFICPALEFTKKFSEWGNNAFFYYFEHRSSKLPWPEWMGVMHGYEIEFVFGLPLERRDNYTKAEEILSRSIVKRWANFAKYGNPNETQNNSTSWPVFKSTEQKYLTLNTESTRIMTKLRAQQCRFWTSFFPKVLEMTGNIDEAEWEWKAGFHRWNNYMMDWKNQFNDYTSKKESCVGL

CCOC(=O)C1=C(c2ccccc2)Oc2nc3c(c(N)c2C1c1ccc(Br)cc1)CCCC3 (stereo not drawn)
IC50 (Acetylcholinesterase [1]): 6220 nM
IC50 (Cholinesterase): 74200 nM

CCOC(=O)C1=C(c2ccccc2)Oc2nc3c(c(N)c2C1c1ccccc1Cl)CCCC3 (stereo not drawn)
IC50 (Acetylcholinesterase [1]): 153 nM
IC50 (HepG2): > 100 µg/mL
IC50 (Cholinesterase): 2140 nM
Activity (PC-12 [2]): Active
Activity (PC-12 [3]): Active

CCOC(=O)C1=C(c2ccccc2)Oc2nc3c(c(N)c2C1c1cccc(Br)c1)CCCC3 (stereo not drawn)
IC50 (Acetylcholinesterase [1]): 69 nM
IC50 (HepG2): 72.8 µg/mL (≈ 144 µM)
IC50 (Cholinesterase): 1350 nM
Activity (PC-12 [3]): Active
Ki (Acetylcholinesterase [4]): 48.5 nM

CCOC(=O)C1=C(c2ccccc2)Oc2nc3c(c(N)c2C1c1ccc([N+](=O)[O-])cc1)CCCC3 (stereo not drawn)
IC50 (Acetylcholinesterase [1]): 583 nM
IC50 (Cholinesterase): 9910 nM

CCOC(=O)C1=C(c2ccccc2)Oc2nc3c(c(N)c2C1c1ccccc1)CCCC3 (stereo not drawn)
IC50 (Acetylcholinesterase [1]): 423 nM
IC50 (Cholinesterase): 5490 nM

CCOC(=O)C1=C(c2ccccc2)Oc2nc3c(c(N)c2C1c1ccc(Cl)cc1)CCCC3 (stereo not drawn)
IC50 (Acetylcholinesterase [1]): 1100 nM
IC50 (Cholinesterase): 17600 nM

CCOC(=O)C1=C(c2ccccc2)Oc2nc3c(c(N)c2C1c1ccccc1F)CCCC3 (stereo not drawn)
IC50 (Acetylcholinesterase [1]): 370 nM
IC50 (Cholinesterase): 3630 nM

CCOC(=O)C1=C(c2ccccc2)Oc2nc3c(c(N)c2C1c1cccc(F)c1)CCCC3 (stereo not drawn)
IC50 (Acetylcholinesterase [1]): 778 nM
IC50 (Cholinesterase): 11700 nM

CCOC(=O)C1=C(c2ccccc2)Oc2nc3c(c(N)c2C1c1ccc(F)cc1)CCCC3 (stereo not drawn)
IC50 (Acetylcholinesterase [1]): 404 nM
IC50 (Cholinesterase): 6100 nM

CCOC(=O)C1=C(c2ccccc2)Oc2nc3c(c(N)c2C1c1ccc(C)cc1)CCCC3 (stereo not drawn)
IC50 (Acetylcholinesterase [1]): 4160 nM
IC50 (Cholinesterase): 54100 nM

CCOC(=O)C1=C(c2ccccc2)Oc2nc3c(c(N)c2C1c1ccc(OC)cc1)CCCC3 (stereo not drawn)
IC50 (Acetylcholinesterase [1]): 480 nM
IC50 (Cholinesterase): 5760 nM

CCOC(=O)C1=C(c2ccccc2)Oc2nc3c(c(N)c2C1c1ccc(Cl)cc1Cl)CCCC3 (stereo not drawn)
IC50 (Acetylcholinesterase [1]): 1620 nM
IC50 (Cholinesterase): 22700 nM

CCOC(=O)C1=C(c2ccccc2)Oc2nc3c(c(N)c2C1c1cccc(Cl)c1)CCCC3 (stereo not drawn)
IC50 (Acetylcholinesterase [1]): 228 nM
IC50 (HepG2): 50.4 µg/mL (≈ 109 µM)
IC50 (Cholinesterase): 3100 nM
Activity (PC-12 [3]): Active

CCOC(=O)C1=C(c2ccccc2)Oc2nc3c(c(N)c2C1c1ccccc1Br)CCCC3 (stereo not drawn)
IC50 (Acetylcholinesterase [1]): 118 nM
IC50 (HepG2): > 100 µg/mL
IC50 (Cholinesterase): 2760 nM
Activity (PC-12 [3]): Active

CCOC(=O)C1=C(c2ccccc2)Oc2nc3c(c(N)c2C1c1cccc(OC)c1)CCCC3 (stereo not drawn)
IC50 (Acetylcholinesterase [1]): 510 nM
IC50 (Cholinesterase): 7140 nM

CCOC(=O)C1=C(c2ccccc2)Oc2nc3c(c(N)c2C1c1cccc([N+](=O)[O-])c1)CCCC3 (stereo not drawn)
IC50 (Acetylcholinesterase [1]): 2730 nM
IC50 (HepG2): > 100 µg/mL
IC50 (Cholinesterase): 40900 nM
